Here are results for eight molecules from the NIST ThermoML archive (doi:10.1016/j.jct.2013.08.005).

± gives the expanded uncertainty stated by the source.

The conditions of the data set: 298.15 K; Liquid; Gas chromatography.
One may read the vapor or sublimation pressure as the equilibrium pressure above the liquid or solid. As for `C[C@@H]1CCC[C@H](C)N1` [2,6-lupetidine, cis-], the “vapor or sublimation pressure” value was 1.576 ± 0.33 kPa.
The figure for `c1ccc(CC2CCNCC2)cc1` [4-benzylpiperidine] is 0.0015 ± 0.0003 kPa.
Turning to `CN[C@@H](C)Cc1ccccc1` [(S)-N-methyl-1-phenylpropan-2-amine], the “vapor or sublimation pressure” value was 0.0375 ± 0.008 kPa.
The figure for `CCCCCCCNCCCCCCC` [N-heptyl-1-heptanamine] is 0.00054 ± 0.00011 kPa.
In the case of `CCCCNCCCC` [dibutylamine], the “vapor or sublimation pressure” value was found to be 0.383 ± 0.12 kPa.
In the case of `CCCCCCCCNCCCCCCCC` [dioctylamine], the “vapor or sublimation pressure” value was 5.6e-05 ± 1.2e-05 kPa.
The figure for `CCCCCNCCCCC` [dipentylamine] is 0.041 ± 0.009 kPa; for `C1CCNCC1` [piperidine] it is 3.52 ± 0.75 kPa.
